Experimental data: US4379917A, “6"-(Substituted)-apramycin antibiotic derivatives and intermediates and starting materials therefor” (Eli Lilly and Company, priority 1981, dated 1983)
≈ marks a conversion by molar mass, not a printed value. Where two headings read alike, the source gives them in different places.

Assays:
[1] = system: Pseudomonas aeruginosa SF-2; assay: MIC by standard agar dilution test; type: cell-based
[2] = system: Pseudomonas aeruginosa PI23; assay: MIC by standard agar dilution test; type: cell-based
[3] = system: Pseudomonas aeruginosa 4276; assay: MIC by standard agar dilution test; type: cell-based
[4] = system: Proteus morganii PR2; assay: MIC by standard agar dilution test; type: cell-based; settings: Morganella morganii, PR2; Table 1; agar dilution; read-out: Minimum Inhibitory Concentration
[5] = system: Serratia marcescens SE2; assay: MIC by standard agar dilution test; type: cell-based
[6] = system: Pseudomonas aeruginosa Ps9; assay: MIC by standard agar dilution test; type: cell-based
[7] = system: Citrobacter freundii CF17; assay: MIC by standard agar dilution test; type: cell-based
[8] = system: Serratia marcescens X99; assay: MIC by standard agar dilution test; type: cell-based
[9] = system: Proteus inconstans PV25; assay: MIC by standard agar dilution test; type: cell-based; settings: Providencia alcalifaciens
[10] = system: Enterobacter aerogenes EB6; assay: MIC by standard agar dilution test; type: cell-based; settings: Klebsiella aerogenes, EB6, read-out: Minimum Inhibitory Concentration
[11] = system: Pseudomonas aeruginosa X239; assay: Subcutaneous therapy of Pseudomonas aeruginosa X239 infections in mice; type: in vivo; settings: X239, sc, 2 subcutaneous doses at 1 and 5 hours post infection, dose to protect 50 percent of test animals, read-out: Effective Dose (ED50)
Method: Table III illustrates the effective dose (ED50, effective dose to protect 50 percent of the test animals) for representative compounds of this invention against an experimental bacterial infection in mice. | *mg/kg × 2 subcutaneous doses at 1 and 5 hours post infections The ED50 values were determined as described by W. E. Wick et al., Journal of Bacteriolocy, 81 [No. 2], 233-235 (1961).

[12] = system: Streptococcus faecalis X66; assay: MIC by standard agar dilution test; type: cell-based; settings: Enterococcus faecalis
[13] = system: Enterobacter aerogenes EB17; assay: MIC by standard agar dilution test; type: cell-based; settings: Klebsiella aerogenes
[14] = system: Enterobacter cloacae EB24; assay: MIC by standard agar dilution test; type: cell-based
[15] = system: Bordetella bronchiseptica 16; assay: MIC by standard agar dilution test; type: cell-based
[16] = system: Staphylococcus aureus 3055; assay: MIC by standard agar dilution test; type: cell-based; settings: Staphylococcus aureus, 3055, read-out: Minimum Inhibitory Concentration
[17] = system: Klebsiella pneumoniae KL14; assay: MIC by standard agar dilution test; type: cell-based
[18] = system: Serratia marcescens SE3; assay: MIC by standard agar dilution test; type: cell-based
[19] = system: Pseudomonas solanacearum X185; assay: microbe, parasite or virus in culture; type: cell-based; settings: Ralstonia solanacearum, X185, read-out: Minimum Inhibitory Concentration
[20] = system: Klebsiella pneumoniae KL2; assay: MIC by standard agar dilution test; type: cell-based
[21] = system: Pseudomonas aeruginosa X528; assay: MIC by standard agar dilution test; type: cell-based
[22] = system: Pseudomonas aeruginosa Ps25; assay: MIC by standard agar dilution test; type: cell-based; settings: PS25, read-out: Minimum Inhibitory Concentration
[23] = system: Erwinia amylovora; assay: MIC by standard agar dilution test; type: cell-based; settings: Table II, read-out: Minimum Inhibitory Concentration
Description: (§1) The antibacterial activity of the antibiotic compounds of this invention is illustrated by the following in vitro and in vivo test data obtained with representative compounds. In Tables I and II the minimum inhibitory concentration (MIC) for representative compounds against a wide range of gram-positive and gram-negative bacteria is presented. The MIC values were obtained by the standard agar dilution test.

[24] = system: Staphylococcus aureus 3074; assay: MIC by standard agar dilution test; type: cell-based; settings: Table II, read-out: Minimum Inhibitory Concentration
Description: as §1

[25] = system: Pseudomonas aeruginosa X239; assay: MIC by standard agar dilution test; type: cell-based
[26] = system: Escherichia coli EC14; assay: MIC by standard agar dilution test; type: cell-based; settings: EC14, read-out: Minimum Inhibitory Concentration
[27] = system: Proteus morganii PR15; assay: MIC by standard agar dilution test; type: cell-based; settings: Morganella morganii
[28] = system: Salmonella typhosa SA12; assay: MIC by standard agar dilution test; type: cell-based; settings: Salmonella enterica, read-out: Minimum Inhibitory Concentration
[29] = system: Pseudomonas aeruginosa Ps15; assay: MIC by standard agar dilution test; type: cell-based; settings: PS15, read-out: Minimum Inhibitory Concentration
[30] = system: Enterobacter cloacae EN453; assay: MIC by standard agar dilution test; type: cell-based
[31] = system: Proteus morganii PR1; assay: MIC by standard agar dilution test; type: cell-based; settings: Morganella morganii, PR1, read-out: Minimum Inhibitory Concentration
[32] = system: Salmonella typhimurium; assay: MIC by standard agar dilution test; type: cell-based; settings: Salmonella enterica, read-out: Minimum Inhibitory Concentration
[33] = system: Pseudomonas aeruginosa X48; assay: MIC by standard agar dilution test; type: cell-based; settings: X48, read-out: Minimum Inhibitory Concentration
[34] = SF2, read-out: Minimum Inhibitory Concentration
[35] = PI23, read-out: Minimum Inhibitory Concentration
[36] = Pseudomonas aeruginosa, 4276, read-out: Minimum Inhibitory Concentration
[37] = PS9, read-out: Minimum Inhibitory Concentration
[38] = CF17, Table II, agar dilution, read-out: Minimum Inhibitory Concentration
[39] = Bordetella bronchiseptica, 16, read-out: Minimum Inhibitory Concentration
[40] = SE3, read-out: Minimum Inhibitory Concentration, Table II
[41] = X528, read-out: Minimum Inhibitory Concentration
[42] = X239, read-out: Minimum Inhibitory Concentration, Table 1
[43] = SE2, read-out: Minimum Inhibitory Concentration
[44] = X99, read-out: Minimum Inhibitory Concentration
[45] = PV25, read-out: Minimum Inhibitory Concentration
[46] = X66, Table II, agar dilution, read-out: Minimum Inhibitory Concentration
[47] = EB17, read-out: Minimum Inhibitory Concentration
[48] = EB24, read-out: Minimum Inhibitory Concentration
[49] = KL14, read-out: Minimum Inhibitory Concentration
[50] = SE3, read-out: Minimum Inhibitory Concentration, Table 1
[51] = KL2, read-out: Minimum Inhibitory Concentration
[52] = X239, read-out: Minimum Inhibitory Concentration, Table II
[53] = PR15, Table II, agar dilution, read-out: Minimum Inhibitory Concentration
[54] = EN453, read-out: Minimum Inhibitory Concentration

Structure (SMILES)	MIC [1, 34]	MIC [2, 35]	MIC [3, 36]	MIC [4]	MIC [6, 37]	MIC [7, 38]	MIC [10]	ED50 [11]	MIC [15, 39]	MIC [16]	MIC [18, 40]	MIC [19]	MIC [22]	MIC [23]	MIC [24]	MIC [26]	MIC [28]	MIC [29]	MIC [31]	MIC [33]	other results
CN[C@@H]1[C@@H](O[C@H]2O[C@H](CN)[C@@H](N)[C@H](O)[C@H]2O)O[C@H]2C[C@@H](N)[C@@H](O[C@H]3[C@H](O)[C@@H](O)[C@H](N)C[C@@H]3N)O[C@@H]2[C@@H]1O [Test Compound 5, 6"-Amino-6"-Deoxyapramycin]	32 µg/mL (≈ 59.4 µM)	> 128 µg/mL	64 µg/mL (≈ 119 µM)	8 µg/mL (≈ 14.9 µM)	128 µg/mL (≈ 238 µM)	8 µg/mL (≈ 14.9 µM)	16 µg/mL (≈ 29.7 µM)	15 mg/kg	32 µg/mL (≈ 59.4 µM)	1 µg/mL (≈ 1.86 µM)	16 µg/mL (≈ 29.7 µM)	4 µg/mL (≈ 7.43 µM)	32 µg/mL (≈ 59.4 µM)	4 µg/mL (≈ 7.43 µM)	4 µg/mL (≈ 7.43 µM)	16 µg/mL (≈ 29.7 µM)	16 µg/mL (≈ 29.7 µM)	32 µg/mL (≈ 59.4 µM)	16 µg/mL (≈ 29.7 µM)	32 µg/mL (≈ 59.4 µM)	MIC ([5]; SE2, Table 1, agar dilution, read-out: Minimum Inhibitory Concentration): 8 µg/mL (≈ 14.9 µM); MIC ([8]; X99, Table 1, agar dilution, read-out: Minimum Inhibitory Concentration): 8 µg/mL (≈ 14.9 µM); MIC ([9]; PV25, Table 1, agar dilution, read-out: Minimum Inhibitory Concentration): 8 µg/mL (≈ 14.9 µM); MIC ([12]; X66, read-out: Minimum Inhibitory Concentration): 32 µg/mL (≈ 59.4 µM); MIC ([13]; EB17, Table II, agar dilution, read-out: Minimum Inhibitory Concentration): 8 µg/mL (≈ 14.9 µM); MIC ([14]; EB24, Table 1, agar dilution, read-out: Minimum Inhibitory Concentration): 8 µg/mL (≈ 14.9 µM); MIC ([17]; KL14, Table II, agar dilution, read-out: Minimum Inhibitory Concentration): 8 µg/mL (≈ 14.9 µM); MIC ([18]; SE3, Table 1, read-out: Minimum Inhibitory Concentration): 8 µg/mL (≈ 14.9 µM); MIC ([20]; KL2, Table 1, agar dilution, read-out: Minimum Inhibitory Concentration): 8 µg/mL (≈ 14.9 µM); MIC [21, 41]: 64 µg/mL (≈ 119 µM); MIC [25, 42]: 32 µg/mL (≈ 59.4 µM); MIC ([27]; PR15, read-out: Minimum Inhibitory Concentration): 32 µg/mL (≈ 59.4 µM); MIC ([30]; EN453, Table 1, agar dilution, read-out: Minimum Inhibitory Concentration): 8 µg/mL (≈ 14.9 µM); MIC ([32]; Table II, agar dilution): 8 µg/mL (≈ 14.9 µM)
CN[C@@H]1[C@@H](O[C@H]2O[C@H](C)[C@@H](N)[C@H](O)[C@H]2O)O[C@H]2C[C@@H](N)[C@@H](O[C@H]3[C@H](O)[C@@H](O)[C@H](N)C[C@@H]3N)O[C@@H]2[C@@H]1O [Test Compound 4, 6"-Deoxyapramycin]		> 128 µg/mL		8 µg/mL (≈ 15.3 µM)	16 µg/mL (≈ 30.6 µM)	8 µg/mL (≈ 15.3 µM)	4 µg/mL (≈ 7.64 µM)	10.9 mg/kg	16 µg/mL (≈ 30.6 µM)	2 µg/mL (≈ 3.82 µM)	16 µg/mL (≈ 30.6 µM)	4 µg/mL (≈ 7.64 µM)	4 µg/mL (≈ 7.64 µM)	2 µg/mL (≈ 3.82 µM)	1 µg/mL (≈ 1.91 µM)	16 µg/mL (≈ 30.6 µM)	4 µg/mL (≈ 7.64 µM)	4 µg/mL (≈ 7.64 µM)	4 µg/mL (≈ 7.64 µM)	4 µg/mL (≈ 7.64 µM)	MIC ([1]; SF2, Table 1, agar dilution, read-out: Minimum Inhibitory Concentration): 8 µg/mL (≈ 15.3 µM); MIC ([3]; Pseudomonas aeruginosa, 4276, Table 1, agar dilution, read-out: Minimum Inhibitory Concentration): 8 µg/mL (≈ 15.3 µM); MIC [5, 43]: 4 µg/mL (≈ 7.64 µM); MIC [8, 44]: 2 µg/mL (≈ 3.82 µM); MIC [9, 45]: 2 µg/mL (≈ 3.82 µM); MIC [12, 46]: 8 µg/mL (≈ 15.3 µM); MIC [13, 47]: 4 µg/mL (≈ 7.64 µM); MIC [14, 48]: 4 µg/mL (≈ 7.64 µM); MIC [17, 49]: 4 µg/mL (≈ 7.64 µM); MIC [18, 50]: 4 µg/mL (≈ 7.64 µM); MIC [20, 51]: 4 µg/mL (≈ 7.64 µM); MIC [21, 41]: 16 µg/mL (≈ 30.6 µM); MIC [25, 42]: 4 µg/mL (≈ 7.64 µM); MIC [25, 52]: 2 µg/mL (≈ 3.82 µM); MIC [27, 53]: 8 µg/mL (≈ 15.3 µM); MIC [30, 54]: 4 µg/mL (≈ 7.64 µM); MIC [32]: 16 µg/mL (≈ 30.6 µM)
CN[C@@H]1[C@@H](O[C@H]2O[C@H](CCl)[C@@H](N)[C@H](O)[C@H]2O)O[C@H]2C[C@@H](N)[C@@H](O[C@H]3[C@H](O)[C@@H](O)[C@H](N)C[C@@H]3N)O[C@@H]2[C@@H]1O [Test Compound 3, 6"-Chloro-6"-Deoxyapramycin]	16 µg/mL (≈ 28.7 µM)		16 µg/mL (≈ 28.7 µM)	32 µg/mL (≈ 57.3 µM)			4 µg/mL (≈ 7.17 µM)			1 µg/mL (≈ 1.79 µM)	16 µg/mL (≈ 28.7 µM)	2 µg/mL (≈ 3.58 µM)	16 µg/mL (≈ 28.7 µM)	1 µg/mL (≈ 1.79 µM)	1 µg/mL (≈ 1.79 µM)	16 µg/mL (≈ 28.7 µM)	2 µg/mL (≈ 3.58 µM)	16 µg/mL (≈ 28.7 µM)	4 µg/mL (≈ 7.17 µM)	16 µg/mL (≈ 28.7 µM)	MIC ([2]; PI23, Table 1, agar dilution, read-out: Minimum Inhibitory Concentration): > 128 µg/mL; MIC [5, 43]: 4 µg/mL (≈ 7.17 µM); MIC ([6]; PS9, Table 1, agar dilution, read-out: Minimum Inhibitory Concentration): 32 µg/mL (≈ 57.3 µM); MIC ([7]; CF17, read-out: Minimum Inhibitory Concentration): 4 µg/mL (≈ 7.17 µM); MIC [8, 44]: 4 µg/mL (≈ 7.17 µM); MIC [9, 45]: 4 µg/mL (≈ 7.17 µM); MIC [12, 46]: 8 µg/mL (≈ 14.3 µM); MIC [13, 47]: 16 µg/mL (≈ 28.7 µM); MIC [14, 48]: 4 µg/mL (≈ 7.17 µM); MIC ([15]; Bordetella bronchiseptica, 16, Table II, agar dilution, read-out: Minimum Inhibitory Concentration): 8 µg/mL (≈ 14.3 µM); MIC [17, 49]: 2 µg/mL (≈ 3.58 µM); MIC [18, 50]: 4 µg/mL (≈ 7.17 µM); MIC [20, 51]: 4 µg/mL (≈ 7.17 µM); MIC ([21]; X528, Table 1, agar dilution, read-out: Minimum Inhibitory Concentration): 32 µg/mL (≈ 57.3 µM); MIC ([25]; X239, Table 1, read-out: Minimum Inhibitory Concentration): 8 µg/mL (≈ 14.3 µM); MIC [25, 52]: 2 µg/mL (≈ 3.58 µM); MIC [27, 53]: 8 µg/mL (≈ 14.3 µM); MIC [30, 54]: 4 µg/mL (≈ 7.17 µM); MIC ([32]; Table II, agar dilution): 8 µg/mL (≈ 14.3 µM)
